Measurements as given in ChEMBL document CHEMBL4825691, “Antimicrobial, modulatory, and antibiofilm activity of tt-farnesol on bacterial and fungal strains of importance to human health” (2021).
Converted amounts (≈) assume the structure as drawn.

How the values were obtained:
Format in all cases: functional
Staphylococcus aureus [1] = test: Antibacterial activity against Staphylococcus aureus ATCC 29213 assessed as inhibition of bacterial growth incubated for 24 hrs by microdilution assay
Staphylococcus aureus [2] = test: Antibacterial activity against Staphylococcus aureus ATCC 43300 assessed as inhibition of bacterial growth incubated for 24 hrs by microdilution assay
Staphylococcus aureus [3] = test: Antibacterial activity against Staphylococcus aureus MED 55 assessed as inhibition of bacterial growth incubated for 24 hrs by microdilution assay
[4] = system: Staphylococcus epidermidis; test: Antibacterial activity against Staphylococcus epidermidis ATCC 12228 assessed as inhibition of bacterial growth incubated for 24 hrs by microdilution assay
[5] = system: Staphylococcus epidermidis; test: Antibacterial activity against Staphylococcus epidermidis 70 D assessed as inhibition of bacterial growth incubated for 24 hrs by microdilution assay
Enterococcus faecalis [6] = test: Antibacterial activity against Enterococcus faecalis ATCC 6569 assessed as inhibition of bacterial growth incubated for 24 hrs by microdilution assay
Enterococcus faecalis [7] = test: Antibacterial activity against Enterococcus faecalis ATCC 29212 assessed as inhibition of bacterial growth incubated for 24 hrs by microdilution assay
Enterococcus faecalis [8] = test: Antibacterial activity against Enterococcus faecalis ATCC 51299 assessed as inhibition of bacterial growth incubated for 24 hrs by microdilution assay
Streptococcus agalactiae [9] = test: Antibacterial activity against Streptococcus agalactiae ATCC 13813 assessed as inhibition of bacterial growth incubated for 24 hrs by microdilution assay
Streptococcus mutans [10] = test: Antibacterial activity against Streptococcus mutans ATCC 25175 assessed as inhibition of bacterial growth incubated for 24 hrs by microdilution assay
Klebsiella pneumoniae [11] = test: Antibacterial activity against Klebsiella pneumoniae ATCC 700603 assessed as inhibition of bacterial growth incubated for 24 hrs by microdilution assay
Klebsiella pneumoniae [12] = test: Antibacterial activity against Klebsiella pneumoniae ATCC 1705 assessed as inhibition of bacterial growth incubated for 24 hrs by microdilution assay
Pseudomonas aeruginosa = test: Antibacterial activity against Pseudomonas aeruginosa ATCC 27853 assessed as inhibition of bacterial growth incubated for 24 hrs by microdilution assay
Proteus mirabilis = test: Antibacterial activity against Proteus mirabilis ATCC 25933 assessed as inhibition of bacterial growth incubated for 24 hrs by microdilution assay
Escherichia coli [13] = test: Antibacterial activity against Escherichia coli ATCC 25922 assessed as inhibition of bacterial growth incubated for 24 hrs by microdilution assay
Escherichia coli [14] = test: Antibacterial activity against Escherichia coli ATCC 35218 assessed as inhibition of bacterial growth incubated for 24 hrs by microdilution assay
Escherichia coli [15] = test: Antibacterial activity against Escherichia coli STEC 2C1 assessed as inhibition of bacterial growth incubated for 24 hrs by microdilution assay
Escherichia coli [16] = test: Antibacterial activity against Escherichia coli EPEC E234969 assessed as inhibition of bacterial growth incubated for 24 hrs by microdilution assay
Staphylococcus aureus [17] = test: Bactericidal activity against Staphylococcus aureus ATCC 43300 assessed as bacterial killing incubated for 24 hrs by microdilution assay
Enterococcus faecalis [18] = test: Bactericidal activity against Enterococcus faecalis ATCC 51299 assessed as bacterial killing incubated for 24 hrs by microdilution assay
Streptococcus pyogenes [19] = test: Bactericidal activity against Streptococcus pyogenes ATCC 19615 assessed as bacterial killing incubated for 24 hrs by microdilution assay
Staphylococcus aureus [20] = test: Ratio of MBC to MIC against Staphylococcus aureus ATCC 43300
Staphylococcus aureus [21] = test: Ratio of MBC to MIC against Staphylococcus aureus MED 55
[22] = system: Staphylococcus epidermidis; test: Ratio of MBC to MIC against Staphylococcus epidermidis ATCC 12228
Enterococcus faecalis [23] = test: Ratio of MBC to MIC against Enterococcus faecalis ATCC 51299
Enterococcus durans [24] = test: Ratio of MBC to MIC against Enterococcus durans BIO 0114
Streptococcus agalactiae [25] = test: Ratio of MBC to MIC against Streptococcus agalactiae ATCC 13813
Streptococcus pyogenes [26] = test: Ratio of MBC to MIC against Streptococcus pyogenes ATCC 19615
Streptococcus mutans [27] = test: Ratio of MBC to MIC against Streptococcus mutans ATCC 25175
Streptococcus sobrinus [28] = test: Ratio of MBC to MIC against Streptococcus sobrinus ATCC 27351
[29] = system: Staphylococcus epidermidis; test: Antimicrobial activity against Staphylococcus epidermidis 70 D assessed assessed as reduction in bacterial growth at 1/4 times of drug MIC in the presence of vancomycin by microdilution method
Enterococcus faecalis [30] = test: Antimicrobial activity against Enterococcus faecalis ATCC 51299 assessed assessed as reduction in bacterial growth at 1/4 times of drug MIC in the presence of Teicoplanin by microdilution method
Enterococcus durans [31] = test: Antimicrobial activity against Enterococcus durans BIO 0114 assessed assessed as reduction in bacterial growth at 1/4 times of drug MIC in the presence of Teicoplanin by microdilution method
Streptococcus mutans [32] = test: Antimicrobial activity against Streptococcus mutans ATCC 25175 assessed assessed as reduction in bacterial growth at 1/4 times of drug MIC in the presence of Ampicillin by microdilution method
Staphylococcus aureus [33] = test: Antimicrobial activity against Staphylococcus aureus ATCC 29213 assessed assessed as reduction in bacterial growth at 1/8 times of drug MIC in the presence of vancomycin by microdilution method
Staphylococcus aureus [34] = test: Antimicrobial activity against Staphylococcus aureus MED 55 assessed assessed as reduction in bacterial growth at 1/8 times of drug MIC in the presence of vancomycin by microdilution method
[35] = system: Staphylococcus epidermidis; test: Antimicrobial activity against Staphylococcus epidermidis ATCC 12228 assessed assessed as reduction in bacterial growth at 1/8 times of drug MIC in the presence of Oxacillin by microdilution method
Enterococcus faecalis [36] = test: Antimicrobial activity against Enterococcus faecalis ATCC 51299 assessed assessed as reduction in bacterial growth at 1/8 times of drug MIC in the presence of Teicoplanin by microdilution method
Enterococcus durans [37] = test: Antimicrobial activity against Enterococcus durans BIO 0114 assessed assessed as reduction in bacterial growth at 1/8 times of drug MIC in the presence of Teicoplanin by microdilution method
Streptococcus agalactiae [38] = test: Antimicrobial activity against Streptococcus agalactiae ATCC 13813 assessed assessed as reduction in bacterial growth at 1/8 times of drug MIC in the presence of Oxacillin by microdilution method
Streptococcus pyogenes [39] = test: Antimicrobial activity against Streptococcus pyogenes ATCC 19615 assessed assessed as reduction in bacterial growth at 1/8 times of drug MIC in the presence of Ampicillin by microdilution method
Staphylococcus aureus [40] = test: Antimicrobial activity against Staphylococcus aureus ATCC […] assessed assessed as reduction in bacterial growth at 1/2 times of drug MIC in the presence of Oxacillin by microdilution method
Enterococcus faecalis [41] = test: Antibiofilm activity against drug-resistant Enterococcus faecalis ATCC 51299 assessed as inhibition of biofilm formation incubated for 24 hrs by crystal violet staining based microtiter plate method
Streptococcus sobrinus [42] = test: Antibiofilm activity against drug-resistant Streptococcus sobrinus ATCC 27351 assessed as inhibition of biofilm formation incubated for 24 hrs by crystal violet staining based microtiter plate method

SMILES: CC(C)=CCC/C(C)=C/CC/C(C)=C/CO [FARNESOL]
- MIC (Staphylococcus aureus [1]): > 1020 µg/mL
- MIC (Staphylococcus aureus [2]): 128 µg/mL (≈ 576 µM)
- MIC (Staphylococcus aureus [3]): 64 µg/mL (≈ 288 µM)
- MIC [4]: 32 µg/mL (≈ 144 µM)
- MIC [5]: 64 µg/mL (≈ 288 µM)
- MIC (Enterococcus faecalis [6]): > 1020 µg/mL
- MIC (Enterococcus faecalis [7]): > 1020 µg/mL
- MIC (Enterococcus faecalis [8]): 128 µg/mL (≈ 576 µM)
- MIC (Streptococcus agalactiae [9]): 16 µg/mL (≈ 72 µM)
- MIC (Streptococcus mutans [10]): 128 µg/mL (≈ 576 µM)
- MIC (Klebsiella pneumoniae [11]): > 1020 µg/mL
- MIC (Klebsiella pneumoniae [12]): > 1020 µg/mL
- MIC (Pseudomonas aeruginosa): > 1020 µg/mL
- MIC (Proteus mirabilis): > 1020 µg/mL
- MIC (Escherichia coli [13]): > 1020 µg/mL
- MIC (Escherichia coli [14]): > 1020 µg/mL
- MIC (Escherichia coli [15]): > 1020 µg/mL
- MIC (Escherichia coli [16]): > 1020 µg/mL
- MBC (Staphylococcus aureus [17]): 512 µg/mL (≈ 2300 µM)
- MBC (Enterococcus faecalis [18]): > 512 µg/mL
- MBC (Streptococcus pyogenes [19]): 64 µg/mL (≈ 288 µM)
- Ratio (Staphylococcus aureus [20]): >4
- Ratio (Staphylococcus aureus [21]): 2
- Ratio [22]: >4
- Ratio (Enterococcus faecalis [23]): >4
- Ratio (Enterococcus durans [24]): >4
- Ratio (Streptococcus agalactiae [25]): 2
- Ratio (Streptococcus pyogenes [26]): 4
- Ratio (Streptococcus mutans [27]): 4
- Ratio (Streptococcus sobrinus [28]): 2
- MIC [29]: 2 µg/mL
- MIC (Enterococcus faecalis [30]): 1 µg/mL
- MIC (Enterococcus durans [31]): 1 µg/mL
- MIC (Streptococcus mutans [32]): 0.5 µg/mL
- MIC (Staphylococcus aureus [33]): 2 µg/mL
- MIC (Staphylococcus aureus [34]): 2 µg/mL
- MIC [35]: 0.25 µg/mL
- MIC (Enterococcus faecalis [36]): 1 µg/mL
- MIC (Enterococcus durans [37]): 1 µg/mL
- MIC (Streptococcus agalactiae [38]): 0.25 µg/mL
- MIC (Streptococcus pyogenes [39]): 0.063 µg/mL
- MIC (Staphylococcus aureus [40]): 1 µg/mL
- MIC (Enterococcus faecalis [41]): 128 µg/mL (≈ 576 µM)
- MIC (Streptococcus sobrinus [42]): 8 µg/mL (≈ 36 µM)
